Measurements taken from PMC7238052, “Novel and Modified Neutrophil Elastase Inhibitor Loaded in Topical Formulations for Psoriasis Management” (Pharmaceutics, 2020).
Read-outs that look alike come from different tables or passages of the source.

Legend:
trypsin = tested on: T1, trypsin; assay: fluorometric protease assay, Z-Gly-Gly-Arg-AMC; format: biochemical, Homo sapiens; details: […] Tris-HCl, […] NaCl pH […] °C; read-out: IC50 ± SD (μM) / Trypsin
T1 construct: gene PRSS1; enzyme from human pancreas
From the text: fluorometric protease assay, Z-Gly-Gly-Arg-AMC on trypsin

urokinase = target: T2, urokinase (Homo sapiens, UniProt P00749); assay: fluorometric protease assay, Z-Gly-Gly-Arg-AMC; format: biochemical; details: read-out: IC50 ± SD (μM) / Urokinase
T2 construct: gene PLAU; isolated enzyme; source not clearly stated
From the text: fluorometric protease assay, Z-Gly-Gly-Arg-AMC on urokinase

[1] = target: T3, Human neutrophil elastase (HNE) (Homo sapiens, UniProt P08246); assay: fluorometric protease assay, MeO-Suc-Ala-Ala-Pro-Val-AMC; format: biochemical
T3 construct: gene ELANE; isolated enzyme, single polypeptide chain
T3 sequence (P08246 30-247): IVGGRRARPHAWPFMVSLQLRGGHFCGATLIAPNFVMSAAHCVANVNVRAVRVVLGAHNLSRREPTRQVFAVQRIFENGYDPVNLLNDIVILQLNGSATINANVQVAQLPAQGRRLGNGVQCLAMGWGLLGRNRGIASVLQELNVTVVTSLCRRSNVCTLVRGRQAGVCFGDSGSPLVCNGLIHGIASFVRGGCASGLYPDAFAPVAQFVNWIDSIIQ
From the text: fluorometric protease assay, MeO-Suc-Ala-Ala-Pro-Val-AMC on Human neutrophil elastase (HNE)

chymotrypsin = tested on: T4, chymotrypsin; assay: fluorometric protease assay, Suc-Ala-Ala-Pro-Phe-AMC; format: biochemical, Homo sapiens; details: […] Tris-HCl, […] NaCl pH […] °C; read-out: IC50 ± SD (μM) / Chymotrypsin
T4 construct: gene CTRB1; enzyme from human pancreas
From the text: fluorometric protease assay, Suc-Ala-Ala-Pro-Phe-AMC on chymotrypsin

kallikrein = tested on: T5, kallikrein; assay: fluorometric protease assay, H-Pro-Phe-Arg-AMC; format: biochemical, Homo sapiens; details: […] Tris-HCl, […] NaCl pH […] °C; read-out: IC50 ± SD (μM) / Kallikrein
T5 construct: gene KLKB1
From the text: fluorometric protease assay, H-Pro-Phe-Arg-AMC on kallikrein

| SMILES | IC50 (trypsin) [µM] | IC50 (urokinase) [µM] | IC50 ([1]; read-out: IC50 ± SD) [nM] | IC50 (chymotrypsin) [µM] | IC50 ([1]; read-out: IC50 ± SD (nM) / HNE) [nM] | IC50 (kallikrein) [µM] |
| --- | --- | --- | --- | --- | --- | --- |
| CCC1(CC)C(=O)N(c2ccc(COc3ccc4ccc(=O)oc4c3)cc2)C1=O [compound 1, 3,3-diethyl-1-(4-(((2-oxo-2H-chromen-7-yl)oxy)methyl)phenyl)-azetidine-2,4-dione] | > 1 | > 50 | 0.42 ± 0.09 | > 8 | – | – |
| CCC1(CC)C(=O)N(c2ccc(CBr)cc2)C1=O [compound 6] | – | – | 0.64 ± 0.03 | – | – | – |
| CCC1(CC)C(=O)N(c2ccc(C(=O)OCc3ccccc3)cc2)C1=O [compound 8] | – | – | 0.96 ± 0.13 | – | – | – |
| CCC1(CC)C(=O)N(c2ccc(C(=O)O)cc2)C1=O [compound 9] | – | – | 14.7 ± 5.55 | – | – | – |
| CCC1(CC)C(=O)N(c2ccc(CSc3nc4cc(C(=O)NCCCNc5ccc([N+](=O)[O-])c6nonc56)ccc4o3)cc2)C1=O [compound 16, 2-((4-(3,3-diethyl-2,4-dioxoazetidin-1-yl)benzyl)thio)-N-(3-((7nitrobenzo[c][1,2,5]oxadiazol-4-yl)amino)propyl)benzo[d]oxazole-5-carboxamide] | > 1 | > 2 | – | – | 0.85 ± 0.1 | > 5 |
| CCC1(CC)C(=O)N(c2ccc(C(=O)NCCCNc3ccc([N+](=O)[O-])c4nonc34)cc2)C1=O [compound 17] | > 1 | > 2 | – | > 0.5 | 0.64 ± 0.03 | > 3 |
